Data taken from ChEMBL document CHEMBL1201862, “PubChem BioAssay data set” (2004).
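Five concentrations, 48 hours, 96-well plates. GI50 marks 50% less growth.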 Calls of active or inactive are those of the source. No stated cut-off is given here; in the data, active = GI50 up to about 1.1 µM and inactive = higher.

Columns and labels:
Assay in all cases: NCI-60 cell line screen, 48 h
A498 = test system: A498
CAKI-1 = test system: CAKI-1
CCRF-CEM = test system: CCRF-CEM
DU-145 = test system: DU-145
HL-60 = test system: HL-60
MCF7 = test system: MCF7
MDA-MB-231 = test system: MDA-MB-231
MDA-MB-435 = test system: MDA-MB-435
NCI-H460 = test system: NCI-H460
NCI/ADR-RES = test system: NCI/ADR-RES
RPMI-8226 = test system: RPMI-8226
SF-295 = test system: SF-295
SK-MEL-2 = test system: SK-MEL-2
SNB-19 = test system: SNB-19
U-251 = test system: U-251
UACC-62 = test system: UACC-62
UO-31 = test system: UO-31
SF-539 = test system: SF-539
T47D = test system: T47D

Structure (SMILES) | GI50 (A498) | GI50 (CAKI-1) | GI50 (CCRF-CEM) | GI50 (DU-145) | GI50 (HL-60) | GI50 (MCF7) | GI50 (MDA-MB-231) | GI50 (MDA-MB-435) | GI50 (NCI-H460) | GI50 (NCI/ADR-RES) | GI50 (RPMI-8226) | GI50 (SF-295) | GI50 (SK-MEL-2) | GI50 (SNB-19) | GI50 (U-251) | GI50 (UACC-62) | GI50 (UO-31) | GI50 (SF-539) | GI50 (T47D)
CSc1nc(NC(C)C)c2c(n1)Sc1nc3ccccc3n1N=C2 | 3.09 µM (inactive) | 28.7 µM (inactive) | 6.58 µM (inactive) | 12.7 µM (inactive) | > 100 µM (inactive) | 20.3 µM (inactive) | 11.1 µM (inactive) | 17.4 µM (inactive) | 6.34 µM (inactive) | 6.92 µM (inactive) | 0.335 µM (active) | 6.03 µM (inactive) | 17.9 µM (inactive) | 7.57 µM (inactive) | 11.5 µM (inactive) | 6.62 µM (inactive) | 5.32 µM (inactive) |  | 
COC(=O)C1=C(O)C(C(=O)OC)[C@]2(O)[C@H](C(=O)OC)[C@H]1C[C@@H](c1ccccc1OC)[C@H]2C(=O)OC (some centres undefined) | 3.53 µM (inactive) | 3.99 µM (inactive) | 3.56 µM (inactive) | 5.07 µM (inactive) | 3.29 µM (inactive) |  | 9.55 µM (inactive) | 2.71 µM (inactive) | 4.51 µM (inactive) | 2.61 µM (inactive) | 2.17 µM (inactive) | 6.08 µM (inactive) | 6.03 µM (inactive) | 5.24 µM (inactive) | 6.56 µM (inactive) | 4.24 µM (inactive) | 10 µM (inactive) | 2.71 µM (inactive) | 10.4 µM (inactive)
Oc1nc2ccccc2c(O)c1Cc1ccccc1 | > 100 µM (inactive) | > 100 µM (inactive) | > 100 µM (inactive) | > 100 µM (inactive) | > 100 µM (inactive) | > 100 µM (inactive) | > 100 µM (inactive) | > 100 µM (inactive) | > 100 µM (inactive) | > 100 µM (inactive) | > 100 µM (inactive) | > 100 µM (inactive) |  | > 100 µM (inactive) | > 100 µM (inactive) |  | > 10 µM (inactive) | > 100 µM (inactive) | 
Fc1ccc(F)c(/C=N/C23CC4CC(CC(C4)C2)C3)c1 | > 10 µM (inactive) | > 10 µM (inactive) | 5.13 µM (inactive) | > 10 µM (inactive) | 2.62 µM (inactive) | > 10 µM (inactive) |  |  | > 10 µM (inactive) | > 10 µM (inactive) | > 10 µM (inactive) | > 10 µM (inactive) | > 10 µM (inactive) | > 10 µM (inactive) | > 10 µM (inactive) |  | > 10 µM (inactive) | > 10 µM (inactive) | > 10 µM (inactive)
O=C(NCCCCNCCCNC(=O)OCc1ccccc1)OCc1ccccc1 | 17.4 µM (inactive) |  | 31 µM (inactive) | 73.6 µM (inactive) | 20.3 µM (inactive) | 24.5 µM (inactive) |  | 33.4 µM (inactive) | 23.6 µM (inactive) | 36.4 µM (inactive) | 39 µM (inactive) | 21.8 µM (inactive) | 21 µM (inactive) | 37.8 µM (inactive) | 34.5 µM (inactive) | 17.9 µM (inactive) | 24.2 µM (inactive) | 21.3 µM (inactive) | 18.9 µM (inactive)
CC1=C(Cl)C[C@@H](/C(C)=C\Cl)O[C@@]1(O)C(Br)Br | 31.1 µM (inactive) | 18.5 µM (inactive) | 6.27 µM (inactive) | 19.9 µM (inactive) | 6.92 µM (inactive) | 18.2 µM (inactive) | 19.5 µM (inactive) | 31.6 µM (inactive) | 41.1 µM (inactive) |  | 18.2 µM (inactive) | > 100 µM (inactive) | 28.4 µM (inactive) | > 100 µM (inactive) | 32.8 µM (inactive) | 45.2 µM (inactive) | 25.3 µM (inactive) | 33.8 µM (inactive) | 
CSC(SC)=C(C#N)C(=O)Nc1ccc(C)cc1 |  | 42.8 µM (inactive) | 34.6 µM (inactive) | > 100 µM (inactive) | 37.2 µM (inactive) | 71.9 µM (inactive) | > 100 µM (inactive) | > 100 µM (inactive) | > 100 µM (inactive) |  | 42.2 µM (inactive) | > 100 µM (inactive) | > 100 µM (inactive) | > 100 µM (inactive) | > 100 µM (inactive) | 94.4 µM (inactive) | 61 µM (inactive) | > 100 µM (inactive) | > 100 µM (inactive)
S=C1SCN(Cc2ccco2)CN1c1ccc(Br)cc1 | 20 µM (inactive) | 14.8 µM (inactive) | 16.4 µM (inactive) | 26.2 µM (inactive) | 13.2 µM (inactive) | 14.6 µM (inactive) |  | 14.6 µM (inactive) | 7.33 µM (inactive) | 18.3 µM (inactive) | 15.4 µM (inactive) | 6.98 µM (inactive) | 13.6 µM (inactive) | 21.8 µM (inactive) | 21.9 µM (inactive) | 2.94 µM (inactive) | 22.9 µM (inactive) | 14.5 µM (inactive) | 20.1 µM (inactive)
C=C(C)CNCCN | > 100 µM (inactive) | > 100 µM (inactive) | > 100 µM (inactive) | > 100 µM (inactive) | > 100 µM (inactive) |  | > 100 µM (inactive) | > 100 µM (inactive) | > 100 µM (inactive) | > 100 µM (inactive) |  | > 100 µM (inactive) | > 100 µM (inactive) | > 100 µM (inactive) | > 100 µM (inactive) | > 100 µM (inactive) | > 100 µM (inactive) |  | > 100 µM (inactive)
O=C1c2ccccc2C(=O)c2c(O)ccc(O)c21 [QUINIZARIN] | > 100 µM (inactive) | > 100 µM (inactive) | > 100 µM (inactive) |  | > 100 µM (inactive) |  |  |  | 40.8 µM (inactive) |  | 91 µM (inactive) | > 100 µM (inactive) | 79.8 µM (inactive) | > 100 µM (inactive) | > 100 µM (inactive) | > 100 µM (inactive) | 59 µM (inactive) | > 100 µM (inactive) | 
COc1c(C(CC(C)C)OC(C)=O)ccc2c1C(=O)OCc1cc(C)cc(O)c1O2 (centres undefined) | 20.3 µM (inactive) | 16.1 µM (inactive) | > 100 µM (inactive) | 12.5 µM (inactive) | > 100 µM (inactive) | 11.8 µM (inactive) |  | 13.7 µM (inactive) | 12.6 µM (inactive) | 12.5 µM (inactive) | > 100 µM (inactive) | 14.4 µM (inactive) | 19.1 µM (inactive) | 14.8 µM (inactive) | 14.9 µM (inactive) | 12.7 µM (inactive) | 6.95 µM (inactive) | 18.2 µM (inactive) | 11.3 µM (inactive)
O=C1c2ccccc2C(=O)c2c(O)c(O)cc(O)c21 [PURPURIN] | 31 µM (inactive) | 44 µM (inactive) | 35 µM (inactive) |  | 24 µM (inactive) |  |  |  | 34.5 µM (inactive) |  | 25.8 µM (inactive) | 51.6 µM (inactive) | 21.2 µM (inactive) | 34.1 µM (inactive) | 35.6 µM (inactive) | 26.1 µM (inactive) | 19 µM (inactive) | 17.8 µM (inactive) | 
CC1=C(C)CC(C#N)(C#N)C(C#N)(C#N)C1 | > 10 µM (inactive) | > 10 µM (inactive) | 1.45 µM (inactive) | > 10 µM (inactive) | 1.47 µM (inactive) | > 5.65 µM (inactive) | > 10 µM (inactive) |  | > 10 µM (inactive) | > 10 µM (inactive) | 2.18 µM (inactive) | > 10 µM (inactive) | > 10 µM (inactive) | > 10 µM (inactive) | > 10 µM (inactive) | > 6.58 µM (inactive) | > 10 µM (inactive) | > 10 µM (inactive) | > 5.71 µM (inactive)
COC(=O)C1CC(C=O)=C(SC)N1 (centres undefined) | > 50 µM (inactive) | > 50 µM (inactive) |  | > 50 µM (inactive) |  | > 50 µM (inactive) | > 50 µM (inactive) | > 50 µM (inactive) | > 50 µM (inactive) | > 50 µM (inactive) | > 50 µM (inactive) | > 50 µM (inactive) | > 50 µM (inactive) | > 50 µM (inactive) | > 50 µM (inactive) | > 50 µM (inactive) | > 50 µM (inactive) |  | 
C[C@H](CO)C1=CC(C#C[Si](C)(C)C)N(C(=O)Oc2ccccc2)c2ccccc21 (some centres undefined) |  | 14.1 µM (inactive) | 10.9 µM (inactive) | 16.9 µM (inactive) | 10.4 µM (inactive) |  | 10.3 µM (inactive) | 2.26 µM (inactive) | 9.25 µM (inactive) | 3.18 µM (inactive) | 20 µM (inactive) | 3.86 µM (inactive) | 13.4 µM (inactive) | 15.8 µM (inactive) | 14.6 µM (inactive) | 5.3 µM (inactive) | 9.27 µM (inactive) | 16 µM (inactive) | 15.9 µM (inactive)
Cc1ccc(-n2nnc(C#N)c2O)cc1 |  | 93.3 µM (inactive) | > 100 µM (inactive) | > 100 µM (inactive) | > 100 µM (inactive) | > 100 µM (inactive) | > 100 µM (inactive) | > 100 µM (inactive) | > 100 µM (inactive) | > 100 µM (inactive) | > 100 µM (inactive) | > 100 µM (inactive) | > 100 µM (inactive) | > 100 µM (inactive) | > 100 µM (inactive) | > 100 µM (inactive) | > 100 µM (inactive) |  | > 100 µM (inactive)
CC(C)(C)/C(O)=C\c1nc2cc(C(F)(F)F)ccc2[nH]c1=O | > 100 µM (inactive) | > 100 µM (inactive) | 13.3 µM (inactive) | > 100 µM (inactive) | 0.53 µM (active) |  | > 100 µM (inactive) | > 100 µM (inactive) |  | > 100 µM (inactive) | > 100 µM (inactive) | > 100 µM (inactive) | > 100 µM (inactive) | > 100 µM (inactive) | > 100 µM (inactive) | > 100 µM (inactive) | > 100 µM (inactive) |  | > 100 µM (inactive)
